Experimental data from patent publication US7595003B2, “On-board water treatment and management process and apparatus” (priority 2004, dated 2009).
Where “and” joins values, the source holds several entries; their conditions need not be identical. Identical values can stand only once.

Experiments:
Cryptosporidium oocysts = conditions: exposure for 1 minute; cited from earlier work
[1] = tested on: organisms contained in the ballast water; test: batch challenge of unfortified actual ballast water; format: cell-based
Method: The basic approach was evaluated with batch challenging of actual ballast water. The water came from the hold of a ship originating from Port Moin, Costa Rica. Ballast water in the ship was sampled in the Port of Philadelphia, and the biota in the samples was characterized by the Bigelow Laboratory for Ocean Sciences. About 80% of the water was taken on or exchanged in the Caribbean, while it is believed that the remaining 20% came from the port of origin. The water had been in the ballast tanks for 21 days, and total ballast capacity of the vessel was 265 cubic meters. The samples were drawn at the 73 cubic meter level.
A challenge was made of unfortified ballast water (without B. subtilis endospores) to assess the killing of organisms contained in the ballast water. For this test, an applied ozone power of 660 watts was used with 0.8 m^3hr^−1. The samples were quenched by adding 10 ml of 1% sodium thiosulfate to the 1 L HDPE collection bottles prior to collecting the samples. A control sample without ozone treatment or quenchant was submitted along with a control containing the quenchant without treatment.
The treatment times for the samples were in one-minute increments from one to five minutes.

invertebrates = conditions: typical applications; cited from earlier work
phytoplankton = test: flowing system (Phase II): culture tests for the presence of phytoplankton; format: cell-based; design: key: Bacterial growth (Bac); Phytoplankton (PHY); conditions: outlet, 125 gpm, UTS Full, ozone Full (1.0 mg/L), 8 psu; samples 3A, 4A
[2] = ozone mass transport into water in acoustic reactor; format: physicochemical; conditions: high acoustic intensity (215 dB) versus low acoustic intensity (205 dB, nominally same as sparger)
Method: Adopting the same approach as above, acoustic energy at 205 and 215 dB re 1 μPa at 75 Hz was supplied along with the ozone over the same range of concentration. The acoustic pressure signal of the sonic devices was detected with a hydrophone sensor placed in the reactor. A typical 214 dB signal is shown in the captured trace in FIG. 11. In this series of experiments with a constant 1.5 mg/L concentration, the applied power of the ozone generator was constant; i.e., it was not controlled by the feedback of the dissolved ozone concentration controller. Higher intensity of applied acoustic energy appears to correlate to an increase in ozone mass transport. Utilizing the slopes of the ozone concentration curves, one can calculate an apparent mass transfer coefficient about 40% greater for the high acoustic intensity than for the low acoustic intensity, which was nominally the same as the sparger. This effect has been noted in other applications of ozone mixing, specifically in the oxidative treatment of waste streams. Intensity of this magnitude corresponds to pressure fluctuations of over 8 psi.

bacteria and fungi = test: flowing system (Phase II): culture tests for the presence of bacteria and fungi; format: cell-based; design: key to growth in TM (test medium) / growth in M (malt broth) / growth in PM (peptonemethylamine broth) / growth in P (peptone broth) / growth in BP: Bacterial growth (Bac); Phytoplankton (PHY)
Method: Bigelow Laboratory inoculated 200 μL of sample into various media the day after the samples were collected. The flow rate, water pressure (PSI), temperature, ultrasonic treatment system (UTS) and ozone treatment values were provided by ETI. The hydrogen ion concentration (pH) and salinity values were determined at Bigelow Laboratory. Culture treatments included tests for the presence of bacteria and fungi [peptonemethylamine broth (PM), peptone broth (P), test medium (TM), malt broth (M)] and tests for the presence of phytoplankton [DY-V medium, freshwater (DYV), K medium, oceanic (K), L1+NH4, coastal (L1+NH4), black sea medium, brackish at 16 psu (Blk Sea), L1/24 medium, coastal at 24 psu (L1/24), Prov medium, coastal enriched with soil extract (Prov)]. Bacterial growth (Bac) developed in all of the bacterial test media. Phytoplankton (PHY) grew in all algal growth media (see footnotes for details).
(§1) A summary of data is provided in Table 6, below, from a second batch of harbor water samples that were likewise examined by Bigelow Laboratory the day after they were collected. 200 μL of sample was inoculated into various media. The flow rate, water pressure (PS), temperature, ultrasonic treatment system (UTS) and ozone treatment values were provided by ETI. The hydrogen ion concentration (pH) and salinity values were determined at Bigelow Laboratory. Culture treatments included tests for the presence of bacteria and fungi [peptonemethylamine broth (PM), peptone broth (P), test medium (TM), malt broth (M)] and tests for the presence of phytoplankton [DY-V medium, freshwater (DYV), K medium, oceanic (K), L1+NH4, coastal (L1+NH4), black sea medium, brackish at 16 psu (Blk Sea), L1/24 medium, coastal at 24 psu (L1/24), Prov medium, coastal enriched with soil extract (Prov)]. Bacterial growth (Bac) developed in all of the bacterial test media. Zooflagellates (Zoo) grew in all algal growth media from inlet and strainer samples but none from the outlet samples.
as §1, with “In table 7, below, a” for “A”, “provided” for “provided in Table 6, below,”, “all” for “all of the bacterial”, “media without ozone treatment or growth (Bac) developed” for “media. Zooflagellates (Zoo) grew”, “test” for “algal growth”, “without ozone treatment or with a flow rate over 30 gpm.” for “from inlet and strainer samples but none from the outlet samples.”
as §1, with “In table 8, below, a” for “A”, “provided” for “provided in Table 6, below,”, “(PSI),” for “(PS),”, “Bacterial growth (Bac) developed in all of the bacterial test media. Zooflagellates (Zoo) grew in all algal growth media from inlet and strainer samples but none from the outlet samples.” left out

[3] = tested on: B. subtilis var. niger endospores ATCC 9372; test: batch challenge of B. subtilis endospores in deionized buffered water, plate count; format: cell-based, Bacillus subtilis
[4] = 20° C.; cited from earlier work
[5] = ozone power 660 watts, 0.8 m^3hr^−1, treatment 1 to 5 minutes
[6] = outlet, 125 gpm, UTS Full, ozone Full (1.0 mg/L), 8 psu, samples 3A, 4A
[7] = sample 17A: outlet, 10 gpm, UTS Full, ozone 60.0%, 7 psu
[8] = sample 20A: outlet, 30 gpm, UTS Full, ozone 60.0%, 7 psu
[9] = sample 23A: outlet, 50 gpm, UTS Full, ozone 60.0%, 7 psu
[10] = sample 26A: outlet, 88 gpm, UTS Full, ozone 60.0%, 7 psu
[11] = sample 35A: outlet, 50 gpm, UTS Full, ozone Full (1.0 mg/L), 9 psu, one of the triplicate cultures had bacteria
[12] = sample 36A: outlet, 50 gpm, UTS Off, ozone Full (1.0 mg/L), 9 psu
[13] = sample 38A: outlet, 100 gpm, UTS Full, ozone Full (1.0 mg/L), 9 psu, triplicate

Compound: O=[O+][O-] [Ozone, ozone]
- ozone concentration killing Cryptosporidium oocysts (Cryptosporidium oocysts): about 1.5 mg/L
- culture media tests of treated samples ([1]; one-minute treated sample, DYU medium, the only positive of thirty tests): positive growth of a green coccoid alga
- bacteria and zooflagellates in treated samples [1, 5]: positive
- ciliates, dinoflagellates, nematodes in treated samples [1, 5]: no ciliates, dinoflagellates, nematodes, etc., observed
- life in treated samples [1, 5]: nearly devoid of life
- contact dosage needed to kill invertebrates (invertebrates): ~0.3 mg/L
- growth in Blk Sea (black sea medium, brackish at 16 psu) (phytoplankton): PHY^6
- growth in DYV (DY-V medium, freshwater) (phytoplankton): PHY^3
- growth in K (K medium, oceanic) (phytoplankton): PHY^4
- growth in L1 + NH4 (coastal) (phytoplankton): PHY^5
- growth in L1/24 (coastal at 24 psu) (phytoplankton): PHY^7
- growth in Prov (coastal enriched with soil extract) (phytoplankton): PHY^8
- apparent mass transfer coefficient, increase [2]: about 40%
- bacteria in outlet samples (bacteria and fungi; full ozone treatment, flow rates of 30 gpm or less, 21-day incubation): killed all bacteria
- growth in M (malt broth) (bacteria and fungi; [6]): Bac
- growth in P (peptone broth) (bacteria and fungi; [6]): Bac
- growth in PM (peptonemethylamine broth) (bacteria and fungi; [6]): Bac
- growth in TM (test medium) (bacteria and fungi; [6]): Bac
- growth in M (malt broth) (bacteria and fungi; [7]): Bac
- growth in P (peptone broth) (bacteria and fungi; [7]): Bac
- growth in PM (peptonemethylamine broth) (bacteria and fungi; [7]): Bac
- growth in TM (test medium) (bacteria and fungi; [7]): Bac
- growth in M (malt broth) (bacteria and fungi; [8]): Bac
- growth in P (peptone broth) (bacteria and fungi; [8]): Bac
- growth in PM (peptonemethylamine broth) (bacteria and fungi; [8]): Bac
- growth in TM (test medium) (bacteria and fungi; [8]): Bac
- growth in M (malt broth) (bacteria and fungi; [9]): Bac
- growth in P (peptone broth) (bacteria and fungi; [9]): Bac
- growth in PM (peptonemethylamine broth) (bacteria and fungi; [9]): Bac
- growth in TM (test medium) (bacteria and fungi; [9]): Bac
- growth in M (malt broth) (bacteria and fungi; [10]): Bac
- growth in P (peptone broth) (bacteria and fungi; [10]): Bac
- growth in PM (peptonemethylamine broth) (bacteria and fungi; [10]): Bac
- growth in TM (test medium) (bacteria and fungi; [10]): Bac
- growth in M (malt broth) (bacteria and fungi; [11]): Bac^3
- growth in PM (peptonemethylamine broth) (bacteria and fungi; [11]): Bac^2
- growth in TM (test medium) (bacteria and fungi; [11]): Bac^3
- growth in BP (bacteria and fungi; [12]): Bac
- growth in M (malt broth) (bacteria and fungi; [12]): Bac
- growth in TM (test medium) (bacteria and fungi; [12]): Bac
- growth in BP (bacteria and fungi; [13]): Bac
- growth in M (malt broth) (bacteria and fungi; [13]): Bac
- growth in PM (peptonemethylamine broth) (bacteria and fungi; [13]): Bac
- growth in TM (test medium) (bacteria and fungi; [13]): Bac
- ozone concentration time value required to lower viable B. subtilis endospores by 99.9% ([3]; buffered water (pH 7.8), no additional ozone demand): about 4
- log 3 ozone concentration time value ([3]; ozone only (diffuser), no acoustic energy, deionized water): 4.46 and 4.5
- log of colony forming units per mL ([3]; ozone setpoint 1.5 mg/L, diffuser, no acoustic energy, deionized water, at 5 minutes, about 5 at 0 minutes): about 2
- log 3 ozone concentration time value ([3]; ozone with acoustic energy, intensity increased to 215 dB, 75 Hz, deionized water): 4.0

Compound: OBr [Hypobromous acid]
- pKa [4]: 8.8
